Data published in patent US20210045385A1, “PYRIDAZINONE-SUBSTITUTED KETOXIMES AS HERBICIDES” (FMC Corporation, priority 2018, published 2021).

Columns and labels:
Assay type in all cases: in vivo
[1] = test system: Italian ryegrass (Lolium mutiflorum); assay: Test C postemergence, visual plant response rating
Method in brief: (§1)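 Visual injury on a 0 (no effect) to 100 (complete control) scale versus untreated controls, scored approximately 10 d after treatment under greenhouse conditions. Treatments used surfactant-containing non-phytotoxic solvent formulations, sprayed onto loam–sand soil preemergence or onto one- to two-leaf plants 2–10 cm tall postemergence.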

[2] = test system: pigweed (Amaranthus retroflexus); assay: Test C postemergence, visual plant response rating
Method in brief: as §1

corn (Zea mays) = assay: Test C postemergence, visual plant response rating
Method in brief: as §1

[3] = test system: ragweed (common ragweed, Ambrosia artemisiifolia); assay: Test C postemergence, visual plant response rating
Method in brief: as §1

[4] = test system: foxtail, giant (giant foxtail, Setaria faberi); assay: Test C postemergence, visual plant response rating
Method in brief: as §1

[5] = test system: barnyardgrass (Echinochloa crus-galli); assay: Test C postemergence, visual plant response rating
Method in brief: as §1

[6] = test system: blackgrass (Alopecurus myosuroides); assay: Test C postemergence, visual plant response rating
Method in brief: as §1

kochia (Bassia scoparia) [7] = assay: Test C postemergence, visual plant response rating
Method in brief: as §1

[8] = test system: galium (catchweed bedstraw, Galium aparine); assay: Test C postemergence, visual plant response rating
Method in brief: as §1

[9] = test system: wheat (Triticum aestivum); assay: Test C postemergence, visual plant response rating
Method in brief: as §1

[10] = test system: Italian ryegrass (Lolium mutiflorum); assay: Test C preemergence, visual plant response rating; conditions: Test C, 0 is no effect, 100 is complete control
Method in brief: as §1

[11] = test system: pigweed (Amaranthus retroflexus); assay: Test C preemergence, visual plant response rating; conditions: Test C, 0 is no effect, 100 is complete control
Method in brief: as §1

[12] = test system: ragweed (common ragweed, Ambrosia artemisiifolia); assay: Test C preemergence, visual plant response rating; conditions: Test C, 0 is no effect, 100 is complete control
Method in brief: as §1

[13] = test system: foxtail, giant (giant foxtail, Setaria faberi); assay: Test C preemergence, visual plant response rating; conditions: Test C, 0 is no effect, 100 is complete control
Method in brief: as §1

[14] = test system: barnyardgrass (Echinochloa crus-galli); assay: Test C preemergence, visual plant response rating; conditions: Test C, 0 is no effect, 100 is complete control
Method in brief: as §1

kochia (Bassia scoparia) [15] = assay: Test C preemergence, visual plant response rating; conditions: Test C, 0 is no effect, 100 is complete control
Method in brief: as §1

[16] = test system: duck salad (Heteranthera limosa); assay: Test D flooded paddy test, visual plant response rating; conditions: 250 g ai/ha, scale 0 to 100 (0 no effect, 100 complete control), 13 to 15 d
Method in brief: (§2)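 Visual injury scores, 0 (no effect) to 100 (complete control), were assigned after 13 to 15 d in the greenhouse by comparison with controls. Test compounds had been added to paddy water covering soil by 3 cm at the 2-leaf stage.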

[17] = test system: sedge umbrella (small-flower umbrella sedge, Cyperus difformis); assay: as above; conditions: 250 g ai/ha, scale 0 to 100 (0 no effect, 100 complete control), 13 to 15 d
Method in brief: as §2

[18] = test system: barnyardgrass (Echinochloa crus-galli); assay: as above; conditions: 250 g ai/ha, scale 0 to 100 (0 no effect, 100 complete control), 13 to 15 d
Method in brief: as §2

rice (Oryza sativa) = assay: as above; conditions: 250 g ai/ha, scale 0 to 100 (0 no effect, 100 complete control), 13 to 15 d
Method in brief: as §2

[19] = Test C, postemergence, 125 g ai/ha

Row | Compound | Ryegrass, Italian plant response rating (0 to 100 scale) ([1]; Postemergence, 31 g ai/ha) | Ryegrass, Italian plant response rating (0 to 100 scale) [1, 19] | Pigweed plant response rating (0 to 100 scale) ([2]; Postemergence, 31 g ai/ha) | Pigweed plant response rating (0 to 100 scale) [2, 19] | Corn plant response rating (0 to 100 scale) (corn (Zea mays); Postemergence, 31 g ai/ha) | Corn plant response rating (0 to 100 scale) (corn (Zea mays); [19]) | Ragweed plant response rating (0 to 100 scale) ([3]; Postemergence, 31 g ai/ha) | Ragweed plant response rating (0 to 100 scale) [3, 19] | Foxtail, Giant plant response rating (0 to 100 scale) ([4]; Postemergence, 31 g ai/ha) | Foxtail, Giant plant response rating (0 to 100 scale) [4, 19] | Barnyardgrass plant response rating (0 to 100 scale) ([5]; Postemergence, 31 g ai/ha) | Barnyardgrass plant response rating (0 to 100 scale) [5, 19] | Blackgrass plant response rating (0 to 100 scale) ([6]; Postemergence, 31 g ai/ha) | Blackgrass plant response rating (0 to 100 scale) [6, 19] | Kochia plant response rating (0 to 100 scale) (kochia (Bassia scoparia) [7]; Postemergence, 31 g ai/ha) | Kochia plant response rating (0 to 100 scale) (kochia (Bassia scoparia) [7]; [19]) | Galium plant response rating (0 to 100 scale) ([8]; Postemergence, 31 g ai/ha) | Galium plant response rating (0 to 100 scale) [8, 19] | Wheat plant response rating (0 to 100 scale) ([9]; Postemergence, 31 g ai/ha) | Wheat plant response rating (0 to 100 scale) [9, 19] | also measured
1 | C#CCO/N=C(\c1ccc(F)c(Cl)c1)c1c(O)c(C)nn(C)c1=O [Compound 230] | 0 | 40 | 0 | 20 | 0 | 0 | 10 | 20 | 10 | 30 | 0 | 20 | 0 | 10 | 0 | 0 | 50 | 70 | 0 | 60 | Ryegrass, Italian plant response rating (0 to 100 scale) ([10]; 31 g ai/ha): 0; Ryegrass, Italian plant response rating (0 to 100 scale) ([10]; 125 g ai/ha): 10; Pigweed plant response rating (0 to 100 scale) ([11]; 31 g ai/ha): 10; Pigweed plant response rating (0 to 100 scale) ([11]; 125 g ai/ha): 30; Ragweed plant response rating (0 to 100 scale) ([12]; 31 g ai/ha): 0; Ragweed plant response rating (0 to 100 scale) ([12]; 125 g ai/ha): 0; Foxtail, Giant plant response rating (0 to 100 scale) ([13]; 31 g ai/ha): 0; Foxtail, Giant plant response rating (0 to 100 scale) ([13]; 125 g ai/ha): 30; Barnyardgrass plant response rating (0 to 100 scale) ([14]; 31 g ai/ha): 0; Barnyardgrass plant response rating (0 to 100 scale) ([14]; 125 g ai/ha): 0; Kochia plant response rating (0 to 100 scale) (kochia (Bassia scoparia) [15]; 31 g ai/ha): 0; Kochia plant response rating (0 to 100 scale) (kochia (Bassia scoparia) [15]; 125 g ai/ha): 0; Plant response rating, Ducksalad (Flood) [16]: 0; Plant response rating, Sedge, Umbrella (Flood) [17]: 0; Plant response rating, Barnyardgrass (Flood) [18]: 0; Plant response rating, Rice (Flood) (rice (Oryza sativa)): 0
2 | CO/N=C(\c1ccc(Cl)c(Cl)c1)c1c(O)c(C)nn(C)c1=O [Compound 217] | 0 | 0 | 10 | 20 | 0 | 0 | 0 | 20 | 0 | 0 | 0 | 20 | 0 | 0 | 30 | 60 | 40 | 80 | 0 | 0 | Ryegrass, Italian plant response rating (0 to 100 scale) ([10]; 31 g ai/ha): 0; Ryegrass, Italian plant response rating (0 to 100 scale) ([10]; 125 g ai/ha): 0; Pigweed plant response rating (0 to 100 scale) ([11]; 31 g ai/ha): 0; Pigweed plant response rating (0 to 100 scale) ([11]; 125 g ai/ha): 0; Ragweed plant response rating (0 to 100 scale) ([12]; 31 g ai/ha): 0; Ragweed plant response rating (0 to 100 scale) ([12]; 125 g ai/ha): 0; Foxtail, Giant plant response rating (0 to 100 scale) ([13]; 31 g ai/ha): 0; Foxtail, Giant plant response rating (0 to 100 scale) ([13]; 125 g ai/ha): 0; Barnyardgrass plant response rating (0 to 100 scale) ([14]; 31 g ai/ha): 0; Barnyardgrass plant response rating (0 to 100 scale) ([14]; 125 g ai/ha): 0; Kochia plant response rating (0 to 100 scale) (kochia (Bassia scoparia) [15]; 31 g ai/ha): 0; Kochia plant response rating (0 to 100 scale) (kochia (Bassia scoparia) [15]; 125 g ai/ha): 20; Plant response rating, Ducksalad (Flood) [16]: 0; Plant response rating, Sedge, Umbrella (Flood) [17]: 0; Plant response rating, Barnyardgrass (Flood) [18]: 0; Plant response rating, Rice (Flood) (rice (Oryza sativa)): 0
3 | CON=C(c1cc(F)cc(F)c1F)c1c(O)c(C)nn(C)c1=O [Compound 226] | 20 | 50 | 30 | 50 | 0 | 0 | 30 | 70 | 30 | 40 | 10 | 20 | 0 | 0 | 20 | 60 | 50 | 90 | 0 | 0 | Ryegrass, Italian plant response rating (0 to 100 scale) ([10]; 31 g ai/ha): 30; Ryegrass, Italian plant response rating (0 to 100 scale) ([10]; 125 g ai/ha): 70; Pigweed plant response rating (0 to 100 scale) ([11]; 31 g ai/ha): 30; Pigweed plant response rating (0 to 100 scale) ([11]; 125 g ai/ha): 70; Ragweed plant response rating (0 to 100 scale) ([12]; 31 g ai/ha): 30; Ragweed plant response rating (0 to 100 scale) ([12]; 125 g ai/ha): 70; Foxtail, Giant plant response rating (0 to 100 scale) ([13]; 31 g ai/ha): 10; Foxtail, Giant plant response rating (0 to 100 scale) ([13]; 125 g ai/ha): 10; Barnyardgrass plant response rating (0 to 100 scale) ([14]; 31 g ai/ha): 0; Barnyardgrass plant response rating (0 to 100 scale) ([14]; 125 g ai/ha): 0; Kochia plant response rating (0 to 100 scale) (kochia (Bassia scoparia) [15]; 31 g ai/ha): 0; Kochia plant response rating (0 to 100 scale) (kochia (Bassia scoparia) [15]; 125 g ai/ha): 40; Plant response rating, Ducksalad (Flood) [16]: 0; Plant response rating, Sedge, Umbrella (Flood) [17]: 0; Plant response rating, Barnyardgrass (Flood) [18]: 0; Plant response rating, Rice (Flood) (rice (Oryza sativa)): 0
